Columns and labels:
[1] = system: profibrotic gene signatures in phLFs+TGFβ1; test: Microarray transcriptomics and UMAP regulation pattern clustering in phLFs; assay type: cell-based, human; details: phLFs+TGFβ1+example 84
Experimental: Total RNA was isolated PEQGold Total RNA Kit (PeqLab) according to the manufacturer's instructions including gDNA elimination. The Agilent 2100 Bioanalyzer was used to assess RNA quality and RNA with RIN>7 was used for microarray analysis. Total RNA (150 ng) was amplified using the WT PLUS Reagent Kit (Thermo Fisher Scientific Inc., Waltham, USA). Amplified cDNA was hybridized on Human ClariomS arrays (Thermo Fisher Scientific). Staining and scanning (GeneChip Scanner 3000 7G) was done according to manufacturer's instructions. Transcriptome Analysis Console (TAC; version 4.0.0.25; Thermo Fisher Scientific) was used for quality control and to obtain annotated normalized SST-RMA gene-level data. Statistical analyses were performed by utilizing the statistical programming environment R (R Development Core Team Ref1). Genewise testing for differential expression was done employing the paired limma t-test and Benjamini-Hochberg multiple testing correction (FDR<10%). To reduce background, gene sets were filtered using DABG p-values<0.05 in at least one sample per pair and in at least two of three pairs per analysis. […] Then, clusters of genes were extracted. Gene/protein interactions were visualized using the String Database (www.stringdb.org).

[2] = system: TGFβ1-induced fibulin-1 ECM deposition in primary human lung IPF-fibroblasts (phLFs); test: Assessing N23P activity in inhibiting ECM deposition in IPF-fibroblasts (fibulin-1 MFI); assay type: cell-based; details: Homo sapiens, 72 h, 10 μM, TGFβ1 1 ng/ml, MFI, three different IPF-phLFs (n=3)
Experimental: phLFs were cultured in DMEM F-12 medium with 20% fetal bovine serum (FBS) and antibiotic supplement as mentioned above. Cells were seeded with 6000 cells/well in 384-well CellCarrier plates (Perkin Elmer, Cat #6007550). Following overnight incubation, cells were starved in serum-reduced medium (1% FBS with 0.1 mM 2-phosphoascorbate (Sigma, Cat #49752)) for 24 h. Afterwards, cells were treated with TGFβ1 (1 ng/ml) or vehicle, and additionally small molecules or appropriate vehicle controls were added. After 72 h of incubation, medium was changed for starving medium with 1 μg/mL AlexaFluor-488 fluorophore conjugated anti-collagen-type-5 antibodies (SantaCruz, Clone C-5, Cat #sc-166155 AF488), 0.66 μg/mL AlexaFluor-555 fluorophore conjugated anti-collagen-type-1 antibodies (Rockland, Cat #600-401-103-0.1), and 1 μg/mL AlexaFluor-637 fluorophore conjugated anti-fibulin 1 antibodies (SantaCruz, Clone C-5, Cat #sc-25281 AF647) and 1 μg/mL Hoechst H33342 (Sigma). Fluorescenceconjugation of the collagen type 1 antibody was done by using the AlexaFluor-555 Protein Labeling Kit (Invitrogen, Cat #A20174) according to manufacturer's instructions. Labeling efficacy was controlled by photometrical means.
Following four hours of incubation, cells were washed three times with PBS and fixed with paraformaldehyde (PFA). For automated liquid handling in 384 well plates, an INTEGRA Assist Plus (INTEGRA, Zizers, Switzerland) equipped with an INTEGRA Viaflo 1I pipette (INTEGRA, Zizers, Switzerland, Cat #4642), 125 μL GripTips™ pipette tips (INTEGRA, Zizers, Switzerland, Cat #6464) and sterile reagent reservoirs (INTEGRA, Cat #4311) were applied. All automated pipetting steps with the INTEGRA Assist Plus were performed at 9.5 μL/s in order to ensure proper integrity and attachment of the deposited ECM to the culturing surface within the wells of the 384-well plates. During cell seeding the automated liquid handling was performed at 89.3 μL/s. Removal of liquids from the well-plates was done by manually inverting the plates.
Following fixation, the automated imaging was achieved by using aconfocal laser scanning microscope (LSM710, Zeiss) with automated focus detection for three-dimensional image acquisition (1024 px×1024 px×9 px which equals a dimension of 1417 μm×1417 μm×16 μm). For post-acquisition analysis images were imported into IMARIS software (Bitplane) and volume detection or alternatively quantification of the mean fluorescence intensity, as well as Hoechst-stained cell nuclei were automatically counted by using Imaris' spot detection algorithm.
Cells were seeded with 6000 cells/well in 384-well CellCarrier plates. After overnight incubation, cells were starved in serum-reduced medium (1% FBS with 0.1 mM 2-phosphoascorbate for 24 h). Then, phLFs were treated with TGFβ1 (1 ng/ml) or vehicle, and incubated together with synthesized N23Ps (10 μM) or appropriate vehicle controls. After 72 h of incubation, medium was changed for starvation medium with 1 μg/mL AlexaFluor-637 fluorophore conjugated anti-fibulin 1 antibodies (SantaCruz, Clone C-5, Cat #sc-25281 AF647) and 1 μg/mL Hoechst H33342 (Sigma). Following four hours of incubation, cells were washed three times with PBS and fixed with paraformaldehyde (PFA). Following fixation, the automated imaging was achieved by using a confocal laser scanning microscope (LSM710, Zeiss) with automated focus detection for three-dimensional image acquisition (1024 px×1024 px×9 px which equals a dimension of 1417 μm×1417 μm×16 μm). For post-acquisition analysis images were imported into IMARIS software (Bitplane) and quantified for the mean fluorescence intensity, as well as Hoechst-stained cell nuclei were automatically counted by using Imaris' spot detection algorithm.
Assessment of ECM inhibition I: Mean fluorescence intensity (MFI) values represented the degree of fibulin-1 ECM deposition in three different IPF-phLFs (n=3). […]

CCCCOc1ccccc1NC(=O)/C=C/c1ccc(OC)c(OC)c1 [Example 84, (E)-N-(2-butoxyphenyl)-3-(3,4-dimethoxyphenyl)acrylamide]
gene-set enrichment analysis (collagen formation, extracellular matrix organization, smooth-muscle contraction) [1]: negative enrichment for profibrotic gene signatures | inhibition at 10 µM [2]: > 90%

Reference: patent US20240294465A1, “NOVEL ANTI-FIBROTIC DRUGS” (HELMHOLTZ ZENTRUM MUNCHEN - DEUTSCHES FORSCHUNGSZENTRUM FUR …, priority 2021, published 2024)
